Values of other authors, collected in US8778301B2, “Gamma-hydroxybutyrate compositions containing carbohydrate, lipid or amino acid carriers” (Orphan Medical, Inc., priority 2000, dated 2014).
Where a name gives a salt, the structure may show the parent alone.

Key:
[1] = not given; remark: listed apart in the source
[2] = heroin and methadone withdrawal
[3] = patients
[4] = in vivo
[5] = healthy volunteers, 12.5, 25 and 50 mg/kg
[6] = patients; remark: listed apart in the source
[7] = not given; remark: listed apart in the source
[8] = intravenous administration, patients

SMILES	duration of normal sequence of NREM and REM sleep (healthy human volunteers, low doses (about 30 mg/kg)) [h]	tolerance to sleep-inducing effects (low doses, over time)	organ or other toxicities in periodic clinical laboratory tests ([1]; long-term treatment of narcolepsy)	development of tolerance ([1]; patients treated for many years)	symptoms of opiate withdrawal [2]	alcohol craving, daily drinks, alcohol withdrawal symptoms [3]	signs and symptoms of narcolepsy (daytime sleepiness, cataplexy, sleep paralysis, hypnagogic hallucinations) [4]	oral absorption and elimination processes [5]	growth hormone levels [6]	continuity of sleep ([7]; clinical trials)	delta sleep ([7]; clinical trials)	REM latency ([7]; human, in vivo)	sleep apnea ([7]; human, in vivo)	total sleep time and REM sleep ([7]; human, in vivo)	intracranial pressure [8]
O=C(O)CCCO [GHB monosodium salt, sodium oxybate]	2 to 3	without the development of tolerance	–	–	–	–	–	–	–	–	–	–	–	–	–
O=C(O)CCCO [GHB, Gamma-hydroxybutyric acid]	–	–	have not indicated organ or other toxicities	without development of tolerance	decrease the symptoms of opiate withdrawal	reduce alcohol craving, the number of daily drinks consumed, and the symptoms of alcohol withdrawal	substantially reduces the signs and symptoms of narcolepsy	capacity-limited	increase growth hormone levels	improves the continuity of sleep	increases delta sleep	decreases REM latency	reduces sleep apnea	increases total sleep time and REM sleep	reduce intracranial pressure
